Data taken from patent US20150352108A1, “AMINO-PYRIMIDINE COMPOUNDS AS INHIBITORS OF TBK1 AND/OR IKK EPSILON” (Alzheimer's Institute of America, priority 2009, published 2015).

How the values were obtained:
[1] = test system: IFN-α2 mRNA, SLE PBMCs; experiment: Agonist induced IFN-α2 mRNA in PBMCs from SLE patients (qRT-PCR); assay type: cell-based, human; conditions: LMW poly(I:C), serial dilutions
Text: To determine if inhibition of IKKε and/or TBK1 modulates nucleic acid agonist induced gene expression, high molecular weight poly(I:C) (MDA5 agonist) and low weight poly(I:C) (RIG-I agonist) were electroporated into human peripheral blood mononuclear cells (PBMCs) obtained from normal donors, or low molecular weight Poly(I:C) was electroporated into PBMCs from donors that have Systemic Lupus Erythematosus (SLE). Induction of IFN-α2, IFN-β, and BLyS mRNA production was monitored by qRT-PCR.
Human PBMCs were collected from healthy donors using routine laboratory procedures. PBMCs from SLE patients were purchased from Astarte Biologics (Redmond, Wash.). The PBMCs were electroporated using Nucleofector® Kit V (Lonza, Walkersville, Md.) with 0.4 ug/mL of high molecular weight poly (I:C) (InvivoGen, San Diego, Calif.) or 0.4 ug/mL low molecular weight poly (I:C) (InvivoGen, San Diego, Calif.) and seeded into wells containing serial dilutions of Example Compound 5 (0.1% final DMSO concentration). […] RNA was quantitated using Quant-iT™ RiboGreen® RNA Assay Kit (Invitrogen, Carlsbad, Calif.). Reverse transcription and real-time PCR were performed using the QuantiTect Probe RT-PCR Kit (Qiagen, Germantown, Md.) and the 7300 Real-Time PCR System (Applied Biosytems, Foster City, Calif.). […]

[2] = test system: IKKε-mediated phosphorylation of IRF7; experiment: In-situ IKKε-mediated phosphorylation of IRF7 in HEK293T cells (Western blot); assay type: cell-based
[3] = test system: collagen-induced arthritis; experiment: Collagen-induced arthritis model in mice; assay type: in vivo; conditions: for day symptoms of arthritis appeared: days 18-34
Procedure: Male DBA/1 mice were injected with 150 μL of […] bovine type II collagen in Freund's complete adjuvant on days 0 and 21. On days 18 through 34, 100 mg/kg or 150 mg/kg Example Compound 5 was administered orally each day. Also on days 18 through 34, all mouse paws were given a clinical score on a scale of 0-5, based upon the severity of erythema and swelling. Body weights were measured every other day beginning on day 18. Mice were euthanized on day 34, livers were weighed and paws frozen in preparation for subsequent histopathology evaluation.

[4] = test system: Poly(I:C)-induced innate/adaptive immune and IFNα/β-regulated genes, HFLS-RA cells; experiment: Genes modulated by IKKε/TBK1 inhibition in HFLS-RA cells (qRT-PCR arrays, Poly(I:C)); assay type: cell-based, human; conditions: 500 nM pre-treatment
Procedure: IKKε and TBK1 play important roles in modulating several innate/adaptive immune and interferon-regulated genes in response to bacterial and viral infections. To identify genes that are under the control of IKKε and TBK1 kinase activity HFLS-RA cells (Cell Applications, Inc., San Diego, Calif.) were pretreated with a compound according to Formula I (Example Compound 5) (0.5 uM), and then treated with the TLR3 agonist Poly(I:C). A focused RT-PCR array containing either 84 innate/adaptive immune-regulated or 84 IFNα/β-regulated genes were probed by qRT-PCR using mRNA isolated from the treated cells, as well as from untreated control cells, according to the following protocol.
HFLS cells isolated from patients with RA were obtained from Cell Applications, Inc. (HFLS-RA, Cell Applications, Inc., San Diego, Calif.). Cells were seeded in synoviocyte growth medium (Cell Applications, Inc., San Diego, Calif.) and allowed to grow overnight. The following day, media was replaced and cells were treated with 500 nM of Example Compound 5 (0.1% final DMSO concentration). Two hours later, cells were induced with 50 µg/mL Poly(I:C) (Sigma-Aldrich, St. Louis, Mo.). […] RNA was quantitated using Quant-iT™ RiboGreen® RNA Assay Kit (Invitrogen, Inc., Carlsbad, Calif.). […]

[5] = test system: IP-10 production, human fibroblast-like synoviocytes (HFLS-RA); experiment: Inhibition of IP-10 production by HFLS-RA cells induced with Poly(I:C); assay type: cell-based; conditions: Poly(I:C) induction
Procedure: HFLS cells (HFLS-RA) isolated from patients with rheumatoid arthritis were obtained from Cell Applications, Inc. (San Diego, Calif.). Cells were seeded in synoviocyte growth medium (Cell Applications, Inc., San Diego, Calif.) and allowed to grow overnight. The following day, media was replaced and cells were treated with varying concentrations of selected compounds according to Formula I (e.g., Example Compound 5) (0.1% final DMSO concentration). Two hours later, cells were induced with 50 µg/mL Poly(I:C) (Sigma-Aldrich, St. Louis, Mo.). Supernatants were collected 20 hours post-induction and used to monitor RANTES and IP-10 levels using DuoSet ELISA kits (Human CXCL10/IP-10 DuoSet & Human CCL5/RANTES DuoSet; R&D Systems, Inc., Minneapolis, Minn.).

liver weights ([3]; any treatment (100 and 150 mg/kg), day 34): No differences
Compound: N#Cc1cc(-c2ccnc(Nc3ccc(N4CCOCC4)cc3)n2)ccc1OC1CCOCC1 [Example 5, 5-(2-{[4-(Morpholin-4-yl)phenyl]amino}pyrimidin-4-yl)-2-(tetrahydro-2H-pyran-4-yloxy)benzaonitrile]
induction of IFN-α2 mRNA [1]: potently inhibited | inhibition of IKKε-mediated phosphorylation of IRF7 [2]: inhibit | day symptoms were present in all mice ([3]; 100 mg/kg orally): ≤ 30 days | inhibition of AUC of clinical score as a function of time ([3]; 100 mg/kg orally): 29% | inhibition of body weight loss, day 18-34 ([3]; 100 mg/kg orally): 23% | reduction of magnitude of clinical score on day 34 ([3]; 100 mg/kg orally): 20% | day symptoms of arthritis appeared ([3]; 100 mg/kg orally each day): 23 days | day symptoms were present in all mice ([3]; 150 mg/kg orally): ≤ 30 days | inhibition of AUC of clinical score as a function of time ([3]; 150 mg/kg orally): 45% | inhibition of body weight loss, day 18-34 ([3]; 150 mg/kg orally): 42% | reduction of magnitude of clinical score on day 34 ([3]; 150 mg/kg orally): 38% | day symptoms of arthritis appeared ([3]; 150 mg/kg orally each day): 24 days | effect in reducing collagen-induced arthritis ([3]; 100 and 150 mg/kg orally): significant, dose-dependent effects | increases in erythema and swelling (cumulative clinical score) ([3]; both doses (100 and 150 mg/kg)): significantly slower | induction of genes normally induced by Poly(I:C) treatment [4]: potently inhibited | IC50 [5]: ~60 nM
